{"source": "PubChem BioAssay AID504565", "about": "(NMMLSC, 2011)", "system": "Mouse 2C CD8+ T cell-vesicle binding, flow cytometry", "test": "modulators of CD8 T cell-vesicle binding, dose response, powder samples, mouse 2C CD8+ cells (AID 504565)", "key": {"[1]": {"conditions": "CD8+ 90th percentile fluorescence"}, "[2]": {"conditions": "double positive events percentage"}}, "note": "pEC50: −log10 of the molar value."}
{"smiles": "Cc1ccccc1C(=O)N1CCC(C(=O)Nc2ccc(C)c(S(=O)(=O)N3CCCCC3)c2)CC1", "values": [{"measurement": "pEC50", "setting": "[1]", "result": 4.77}, {"measurement": "pEC50", "setting": "[2]", "result": 4.79}]}
{"smiles": "O=C(O)C1CCC(Cn2c(SCc3cc(=O)n4cc(Cl)ccc4n3)nc3ccsc3c2=O)CC1", "note": "(stereo unspecified)", "values": [{"measurement": "pEC50", "setting": "[1]", "result": 4.46}, {"measurement": "pEC50", "setting": "[2]", "result": 4.47}]}
{"smiles": "O=C(COC(=O)C12CC3CC(CC(Br)(C3)C1)C2)Nc1cccc(S(=O)(=O)N2CCOCC2)c1", "values": [{"measurement": "pEC50", "setting": "[1]", "result": 5.08}, {"measurement": "pEC50", "setting": "[2]", "result": 5.49}]}
{"smiles": "CCOC(=O)c1ccc(S(=O)(=O)N2CCN(C3CCCC3)CC2)cc1", "values": [{"measurement": "pEC50", "setting": "[1]", "result": 4.85}, {"measurement": "pEC50", "setting": "[2]", "result": 4.98}]}
{"smiles": "CCOC(=O)C1CCCN(S(=O)(=O)c2ccc(F)c(C(=O)Nc3ccc(F)c(F)c3)c2)C1", "note": "(stereo unspecified)", "values": [{"measurement": "pEC50", "setting": "[1]", "result": 4.42}, {"measurement": "pEC50", "setting": "[2]", "result": 4.46}]}
{"smiles": "CCOc1ccc(-c2nc(N)ncc2-c2ccccc2)c(O)c1", "values": [{"measurement": "pEC50", "setting": "[1]", "result": 6.62}]}
{"smiles": "COCc1c(C(=O)Nc2cccc(S(=O)(=O)N3CCCCC3)c2)oc2ccccc12", "values": [{"measurement": "pEC50", "setting": "[1]", "result": 5.19}, {"measurement": "pEC50", "setting": "[2]", "result": 5.10}]}
{"smiles": "COc1ccc(S(=O)(=O)N2CCCC2C(=O)Nc2ccc(C(C)=O)cc2)cc1", "note": "(stereo unspecified)", "values": [{"measurement": "pEC50", "setting": "[1]", "result": 4.68}, {"measurement": "pEC50", "setting": "[2]", "result": 4.69}]}
{"smiles": "O=C(c1ccc(N2C(=O)C3CC=C(Cl)CC3C2=O)cc1)N1CCCCC1", "note": "(stereo unspecified)", "values": [{"measurement": "pEC50", "setting": "[1]", "result": 4.46}, {"measurement": "pEC50", "setting": "[2]", "result": 4.40}]}
{"smiles": "Cc1cc(Cl)c(OCCCSc2nc(C)cc(=O)[nH]2)c(Br)c1", "values": [{"measurement": "pEC50", "setting": "[1]", "result": 4.65}]}
{"smiles": "CN(CC(=O)Nc1cc(S(=O)(=O)N2CCCC2)ccc1Cl)Cc1ccc2c(c1)OCO2", "values": [{"measurement": "pEC50", "setting": "[1]", "result": 5.10}, {"measurement": "pEC50", "setting": "[2]", "result": 5.01}]}
{"smiles": "CCN(CC)S(=O)(=O)c1ccc(Cl)c(NC(=O)COC(=O)C2CCCCC2)c1", "values": [{"measurement": "pEC50", "setting": "[1]", "result": 4.41}, {"measurement": "pEC50", "setting": "[2]", "result": 4.42}]}
{"smiles": "O=C(NCC1CCCCC1)c1ccc(Cl)c(S(=O)(=O)N2CCOCC2)c1", "values": [{"measurement": "pEC50", "setting": "[1]", "result": 4.67}, {"measurement": "pEC50", "setting": "[2]", "result": 4.77}]}
{"smiles": "CCOCC(=O)Nc1ccc(S(=O)(=O)N2CCC(c3nc4ccccc4[nH]3)CC2)cc1", "values": [{"measurement": "pEC50", "setting": "[1]", "result": 6.22}, {"measurement": "pEC50", "setting": "[2]", "result": 6.20}]}
